Laboratory results: publication PMC7996328, “Design, Synthesis, and Biological Evaluation of a Series of 5- and 7-Hydroxycoumarin Derivatives as 5-HT1A Serotonin Receptor Antagonists” (Pharmaceuticals, 2021)
“Also recorded” adds a separate entry of the source. Like-named read-outs stand apart in the source and are kept apart here.

Assays:
[1] = target: T1, 5-HT1A receptor (Rattus norvegicus, UniProt P19327); assay: Antagonist activity for the 5-HT1A receptor, [35S]GTPγS assay in hippocampal homogenates; type: biochemical; settings: 8-OH-DPAT 1.4 × 10^−7 M, mean ± SEM; for EC50 / EC50 (nM ± SEM): antagonistic activity
T1 construct: Hippocampal homogenates (15 μg/mL) were added to each tube as the 5-HT1A receptor source; from tissue; host or cells: rat hippocampus (male Sprague-Dawley), membrane homogenate
T1 sequence (P19327 1-422): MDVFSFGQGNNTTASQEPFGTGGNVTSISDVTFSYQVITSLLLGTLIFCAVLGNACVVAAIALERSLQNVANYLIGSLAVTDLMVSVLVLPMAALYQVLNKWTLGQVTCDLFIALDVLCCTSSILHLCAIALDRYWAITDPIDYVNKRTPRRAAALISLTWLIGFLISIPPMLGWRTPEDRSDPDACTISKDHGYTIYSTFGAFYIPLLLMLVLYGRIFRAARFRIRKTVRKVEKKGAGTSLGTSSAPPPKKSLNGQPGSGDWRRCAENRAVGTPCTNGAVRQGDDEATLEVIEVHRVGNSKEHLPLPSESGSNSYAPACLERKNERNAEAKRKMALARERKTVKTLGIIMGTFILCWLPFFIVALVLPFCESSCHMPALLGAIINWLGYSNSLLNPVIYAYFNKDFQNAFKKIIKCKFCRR
Method: Male Sprague–Dawley rats were decapitated, their brains removed, and placed on ice. Hippocampi were dissected and homogenized with a glass homogenizer in 30 vol. ice-cold TED buffer (50 mM Tris-HCl, 1 mM EDTA, 1mM dithiotheritol, pH 7.4). Next, the homogenate was centrifuged at 21,000× g for 30 min at 4 °C. […] The suspension was centrifuged again at 21,000× g for 30 min at 4 °C. The pellet was resuspended in 30 vol. TED buffer (pH 7.4) and the centrifugation step was repeated. The final pellet was suspended in 10 vol 50 mM Tris-HCl (pH 7.4) and stored at −80 °C until use.
Serial dilutions of the compounds tested (10^−10–10^−5 M) were incubated in triplicate with 0.8 nM [^35S]GTPγS in assay buffer (50 mM Tris-HCl, pH = 7.4, 1 mM EGTA, 3 mM MgCl2, 100 mM NaCl, 30 µM GDP) and 8-OH-DPAT (final concentration 1.4 × 10^−7 M) in the final assay volume of 250 µL. Hippocampal homogenates (15 μg/mL) were added to each tube as the 5-HT1A receptor source. […] Non-specific binding was determined with 10 µM of unlabeled GTPγS. […] Next, 96-well Unifilter® Plates (Perkin Elmer, Waltham, MA, USA) were presoaked for 1 h with 50 mM Tris-HCl (pH = 7.4) before harvesting. The reaction was terminated by vacuum filtration onto filter plates with the FilterMate Harvester® (Perkin Elmer, Waltham, MA, USA). The samples were then rapidly washed with 2 mL of 50 mM Tris-HCl (pH = 7.4) buffer. Filter plates were dried for 2 h at 50 °C. After drying, 45 µL of EcoScint-20 scintillant (Perkin Elmer) was added to every well. Radioactivity was counted in a Trilux MicroBeta^2 counter (Perkin Elmer). Data were analyzed with GraphPad Prism 5.0 software (GraphPad Software, San Diego, CA, USA, www.graphpad.com). Curves were fitted with a one-site non-linear regression model. Efficacy (Emax) and half maximal inhibitory concentration (IC50) were calculated from the Cheng–Prusoff equation and expressed as means ± SEM.

[2] = target: T2, 5-HT2A receptor (Rattus norvegicus, UniProt P14842); assay: 5-HT2A competition binding assay, [3H]ketanserin, frontal cortex homogenates; settings: [3H]ketanserin 1 nM
T2 construct: from tissue; host or cells: rat frontal cortex (male SD), membrane homogenate
T2 sequence (P14842 whole entry): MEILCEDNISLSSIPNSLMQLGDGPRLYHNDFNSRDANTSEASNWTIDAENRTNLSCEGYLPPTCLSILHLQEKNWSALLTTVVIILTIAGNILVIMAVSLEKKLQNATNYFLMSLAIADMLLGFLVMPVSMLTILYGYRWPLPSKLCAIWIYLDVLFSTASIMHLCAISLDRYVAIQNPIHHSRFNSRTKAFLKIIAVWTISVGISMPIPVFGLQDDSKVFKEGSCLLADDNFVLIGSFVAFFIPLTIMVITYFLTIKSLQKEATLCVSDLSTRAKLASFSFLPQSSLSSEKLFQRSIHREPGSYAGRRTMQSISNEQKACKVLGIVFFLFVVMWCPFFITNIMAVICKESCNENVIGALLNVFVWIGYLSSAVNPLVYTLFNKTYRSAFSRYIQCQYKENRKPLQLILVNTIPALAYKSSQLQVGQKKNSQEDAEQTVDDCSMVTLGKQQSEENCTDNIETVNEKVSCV
Method: Male SD rats were decapitated and their brains removed and placed on ice. Frontal cortices were homogenized with a glass homogenizer in 30 vol ice-cold homogenization buffer (50 mM Tris-HCl. 1 mM EDTA. 5 mM MgCl2. pH 7.4). Next, the homogenate was centrifuged at 20,000× g for 15 min at 4 °C. […] The suspension was again centrifuged at 20,000× g for 15 min at 4 °C. The pellet was resuspended in 10 vol. 50 mM Tris-HCl (pH 7.4) and the centrifugation step was repeated. The final pellet was suspended in 10 vol 50 mM Tris-HCl (pH 7.4) and stored at −80 °C.
Non-specific binding was determined in the presence of 10 μM mianserin. After incubation, the reaction mixture was deposited onto UniFilter-96 GF/B plates with the aid of a FilterMate-96 Harvester. Filter plates were presoaked beforehand with 0.4% PEI for 1 h. Next, each filter well was washed with 1.75 mL of 50 mM Tris-HCl (pH 7.4) and left to dry on a heating block set to 50 °C for 2 h. Then 45 µL of Microscint-20 scintillation fluid was added to each filter well and left to equilibrate overnight. Filter-bound radioactivity was counted in a MicroBeta^2 Microplate Counter. Binding curves were fitted with one site non-linear regression. Affinity was presented as the inhibitory constant (pKi ± SEM and Ki ± SEM) from two or three separate experiments.

[3] = read-out: Ki (nM ± SEM) (converted)
[4] = read-out: pKi (M ± SEM) (converted)

With `Cc1cc(C)cc(N2CCN(CCCCCOc3cc(C)cc4oc(=O)cc(C)c34)CC2)c1` [Compound 1h, 5-(5-(4-(3,5-dimethylphenyl)piperazin-1-yl)pentyloxy)-4,7-dimethyl-2H-chromen-2-one] the IC50 [1] was 200 µM, the EC50 [1] was 198000 nM and the melting point was 104 to 106 °C. For the same compound, the Ki [2, 3] was 1820 ± 636 nM.

`CC(=O)c1c(OCCCCCN2CCN(c3cccc(Cl)c3Cl)CC2)ccc2c(C)cc(=O)oc12` [Compound 5i, 8-acetyl-7-(5-[4-(2,3-dichlorophenyl)piperazin-1-yl]penthoxy)-4-methylchromen-2-one] gave an IC50 [1] of 63.1 µM, an EC50 [1] of 55900 nM and a melting point of 137 to 139 °C. For the same compound, the Ki [2, 3] was 51 ± 8.3 nM and the Ki [2, 4] was 63.1 nM.

Compound `Cc1cc(OCCCCCN2CCN(c3cccc(Cl)c3Cl)CC2)c2c(C)cc(=O)oc2c1` [Compound 1i, 5-(5-(4-(2,3-dichlorophenyl)piperazin-1-yl)pentyloxy)-4,7-dimethyl-2H-chromen-2-one] has an IC50 [1] of 15.8 µM, an EC50 [1] of 13700 nM and a melting point of 162 to 163 °C. For the same compound, the Ki [2, 3] was 1450 ± 653 nM.

`CC(=O)c1c(OCCCCCN2CCN(c3ccccc3C#N)CC2)ccc2c(C)cc(=O)oc12` [Compound 5j, 8-acetyl-7-(5-[4-(2-cyanophenyl)piperazin-1-yl]penthoxy)-4-methylchromen-2-one] gave an IC50 [1] of 15.8 µM, an EC50 [1] of 13900 nM and a melting point of 59 to 61 °C. It also gave a Ki [2, 3] of 2550 ± 765 nM.

For `CC(=O)c1c(OCCN2CCN(c3cc(C)ccc3C)CC2)ccc2c(C)cc(=O)oc12` [Compound 6d, 8-acetyl-7-(2-[4-(2,5-dimethylphenyl)piperazin-1-yl]ethoxy)-4-methylchromen-2-one], the IC50 [1] was 63.1 µM, the EC50 [1] was 59900 nM and the melting point was 96 to 98 °C. The Ki [2, 3] was 2050 ± 405 nM.

Compound `CC(=O)c1c(OCCN2CCN(c3cc(C)cc(C)c3)CC2)ccc2c(C)cc(=O)oc12` [Compound 6h, 8-acetyl-7-(2-[4-(3,5-dimethylphenyl)piperazin-1-yl]ethoxy)-4-methylchromen-2-one] has an IC50 [1] of 50.1 µM, an EC50 [1] of 47800 nM and a melting point of 120 to 121 °C. It also gave a Ki [2, 3] of 479 ± 96 nM.

In the case of `CC(=O)c1c(C)cc2oc(=O)cc(C)c2c1OCCN1CCN(c2cccc(Br)c2)CC1` [Compound 4g], the IC50 [1] is reported as 12.6 µM, the EC50 [1] is reported as 11100 nM and the melting point is reported as 127 to 128 °C. It also gave a Ki [2, 3] of 3990 ± 745 nM.

Work on `CC(=O)c1c(C)cc2oc(=O)cc(C)c2c1OCCCCCN1CCN(c2ccccc2Br)CC1` [Compound 3f, 6-acetyl-5-(5-(4-(2-bromophenyl)piperazin-1-yl)pentyloxy)-4,7-dimethyl-2H-chromen-2-one] yielded an IC50 [1] of 0.692 µM, an EC50 [1] of 689 ± 138 nM and a melting point of 108 to 109 °C. For the same compound, the Ki [2, 3] was 354 ± 110 nM.

`CC(=O)c1c(OCCN2CCN(c3cccc(F)c3)CC2)ccc2c(C)cc(=O)oc12` [Compound 6e, 8-acetyl-7-(2-[4-(3-fluorophenyl)piperazin-1-yl]ethoxy)-4-methylchromen-2-one] showed an IC50 [1] of 100 µM, an EC50 [1] of 98900 nM and a melting point of 86 to 88 °C. It also gave a Ki [2, 3] of 1670 ± 274 nM.

With `Cc1cc(OCCN2CCN(c3ccccc3F)CC2)c2c(C)cc(=O)oc2c1` [Compound 2b, 5-(2-(4-(2-fluorophenyl)piperazin-1-yl)ethoxy)-4,7-dimethyl-2H-chromen-2-one] the “pIC50 ± SEM” value [1] was “no activity”, the “EC50 (nM ± SEM)” value [1] was “did not show any activity; also recorded: no activity” and the melting point was 121 to 123 °C. For the same compound, the Ki [2, 3] was 2130 ± 662 nM.

Work on `Cc1cc(OCCCCCN2CCN(c3cccc(F)c3)CC2)c2c(C)cc(=O)oc2c1` [Compound 1e, 5-(5-(4-(3-fluorophenyl)piperazin-1-yl)pentyloxy)-4,7-dimethyl-2H-chromen-2-one] yielded an IC50 [1] of 25.1 µM, an EC50 [1] of 24300 nM and a melting point of 101 to 102 °C. It also gave a Ki [2, 3] of 2350 ± 673 nM.

With `COc1cccc(N2CCN(CCOc3ccc4c(C)cc(=O)oc4c3C(C)=O)CC2)c1` [Compound 6c, 8-acetyl-7-(2-[4-(3-methoxyphenyl)piperazin-1-yl]ethoxy)-4-methylchromen-2-one] the IC50 [1] was 50.1 µM, the EC50 [1] was 47200 nM and the melting point was 122 to 124 °C. The Ki [2, 3] was 920 ± 160 nM and the Ki [2, 4] was 933 nM.

`CC(=O)c1c(C)cc2oc(=O)cc(C)c2c1OCCCCCN1CCN(c2cccc(Cl)c2Cl)CC1` [Compound 3i, 6-acetyl-5-(5-(4-(2,3-dichlorophenyl)piperazin-1-yl)pentyloxy)-4,7-dimethyl-2H-chromen-2-one] showed an IC50 [1] of 15.8 µM, an EC50 [1] of 15400 nM and a melting point of 129 to 130 °C. The Ki [2, 3] was 486 ± 102 nM.

`CC(=O)c1c(OCCCCCN2CCN(c3cc(C)cc(C)c3)CC2)ccc2c(C)cc(=O)oc12` [Compound 5h, 8-acetyl-7-(5-[4-(3,5-dimethylphenyl)piperazin-1-yl]penthoxy)-4-methylchromen-2-one] showed an IC50 [1] of 31.6 µM, an EC50 [1] of 32900 nM and a melting point of 113 to 115 °C. The Ki [2, 3] was 291 ± 57 nM.

`CC(=O)c1c(OCCCCCN2CCN(c3ccccc3Br)CC2)ccc2c(C)cc(=O)oc12` [Compound 5f, 8-acetyl-7-(5-[4-(2-bromophenyl)piperazin-1-yl]penthoxy)-4-methylchromen-2-one] gave an IC50 [1] of 31.6 µM, an EC50 [1] of 27400 nM and a melting point of 102 to 103 °C. The Ki [2, 3] was 108 ± 24 nM and the Ki [2, 4] was 110 nM.

Compound `CC(=O)c1c(C)cc2oc(=O)cc(C)c2c1OCCCCCN1CCN(c2ccccc2F)CC1` [Compound 3b, 6-acetyl-5-(5-(4-(2-fluorophenyl)piperazin-1-yl)pentyloxy)-4,7-dimethyl-2H-chromen-2-one] has an IC50 [1] of 20 µM, an EC50 [1] of 19200 nM and a melting point of 137 to 139 °C. It also gave a Ki [2, 3] of 1220 ± 166 nM and a Ki [2, 4] of 1170 nM.

For `Cc1cc(OCCN2CCN(c3ccccc3C#N)CC2)c2c(C)cc(=O)oc2c1` [Compound 2j, 5-(2-(4-(2-cyanophenyl)piperazin-1-yl)ethoxy)-4,7-dimethyl-2H-chromen-2-one], the “pIC50 ± SEM” value [1] was “no activity”, the “EC50 (nM ± SEM)” value [1] was “did not show any activity; also recorded: no activity” and the melting point was 127 to 129 °C. It also gave a Ki [2, 3] of 5620 ± 1850 nM.

Compound `COc1cccc(N2CCN(CCCCCOc3cc(C)cc4oc(=O)cc(C)c34)CC2)c1` [Compound 1c, 5-(5-(4-(3-methoxyphenyl)piperazin-1-yl)pentyloxy)-4,7-dimethyl-2H-chromen-2-one] has an IC50 [1] of 1.58 µM, an EC50 [1] of 1700 ± 358 nM and a melting point of 103 to 105 °C. For the same compound, the Ki [2, 3] was 610 ± 139 nM.

With `CC(=O)c1c(OCCCCCN2CCN(c3cc(C)ccc3C)CC2)ccc2c(C)cc(=O)oc12` [Compound 5d, 8-acetyl-7-(5-[4-(2,5-dimethylphenyl)piperazin-1-yl]penthoxy)-4-methylchromen-2-one] the IC50 [1] was 12.6 µM, the EC50 [1] was 12900 nM and the melting point was 92 to 94 °C. It also gave a Ki [2, 3] of 1500 ± 279 nM.
